Values of other authors, collected in US12357536B2, “Containers with selective dissolved gas content” (BAXTER INTERNATIONAL INC., priority 2021, dated 2025).
Where two headings read alike, the source gives them in different places.

Details: cited from earlier work; for Solubility of oxygen: 760 mm Hg, salinity 0.0 ppt

SMILES: O=O [oxygen]
- Solubility of oxygen (3.0 °C): 13.445 ppm
- Solubility of oxygen (3.2 °C): 13.374 ppm
- Solubility of oxygen (3.4 °C): 13.303 ppm
- Solubility of oxygen (3.6 °C): 13.233 ppm
- Solubility of oxygen (3.8 °C): 13.163 ppm
- Solubility of oxygen (4.0 °C): 13.094 ppm
- Solubility of oxygen (4.2 °C): 13.025 ppm
- Solubility of oxygen (4.4 °C): 12.957 ppm
- Solubility of oxygen (4.6 °C): 12.890 ppm
- Solubility of oxygen (4.8 °C): 12.823 ppm
- Solubility of oxygen (5.0 °C): 12.757 ppm
- Solubility of oxygen (5.2 °C): 12.692 ppm
- Solubility of oxygen (5.4 °C): 12.627 ppm
- Solubility of oxygen (5.6 °C): 12.563 ppm
- Solubility of oxygen (5.8 °C): 12.499 ppm
- Solubility of oxygen (6.0 °C): 12.436 ppm
- Solubility of oxygen (6.2 °C): 12.373 ppm
- Solubility of oxygen (6.4 °C): 12.311 ppm
- Solubility of oxygen (6.6 °C): 12.249 ppm
- Solubility of oxygen (6.8 °C): 12.188 ppm
- Solubility of oxygen (7.0 °C): 12.127 ppm
- Solubility of oxygen (7.2 °C): 12.067 ppm
- Solubility of oxygen (7.4 °C): 12.008 ppm
- Solubility of oxygen (7.6 °C): 11.949 ppm
- Solubility of oxygen (7.8 °C): 11.980 ppm
- Solubility of oxygen (8.0 °C): 11.832 ppm
- Solubility of oxygen (8.2 °C): 11.774 ppm
- Solubility of oxygen (8.4 °C): 11.717 ppm
- Solubility of oxygen (8.6 °C): 11.661 ppm
- Solubility of oxygen (8.8 °C): 11.604 ppm
- Solubility of oxygen (9.0 °C): 11.549 ppm
- Solubility of oxygen (9.2 °C): 11.493 ppm
- Solubility of oxygen (9.4 °C): 11.439 ppm
- Solubility of oxygen (9.6 °C): 11.384 ppm
- Solubility of oxygen (9.8 °C): 11.331 ppm
- Solubility of oxygen (10.0 °C): 11.277 ppm
- Solubility of oxygen (10.2 °C): 11.224 ppm
- Solubility of oxygen (10.4 °C): 11.172 ppm
- Solubility of oxygen (10.6 °C): 11.119 ppm
- Solubility of oxygen (10.8 °C): 11.068 ppm
- Solubility of oxygen (11.0 °C): 11.016 ppm
- Solubility of oxygen (11.2 °C): 10.995 ppm
- Solubility of oxygen (11.4 °C): 10.915 ppm
- Solubility of oxygen (11.6 °C): 10.865 ppm
- Solubility of oxygen (11.8 °C): 10.815 ppm
- Solubility of oxygen (12.0 °C): 10 766 ppm
- Solubility of oxygen (12.2 °C): 10.717 ppm
- Solubility of oxygen (12.4 °C): 10.669 ppm
- Solubility of oxygen (12.6 °C): 10.620 ppm
- Solubility of oxygen (12.8 °C): 10.573 ppm
- Solubility of oxygen (13.0 °C): 10.525 ppm
- Solubility of oxygen (13.2 °C): 10.478 ppm
- Solubility of oxygen (13.4 °C): 10.432 ppm
- Solubility of oxygen (13.6 °C): 10.386 ppm
- Solubility of oxygen (13.8 °C): 10.340 ppm
- Solubility of oxygen (14.0 °C): 10.294 ppm
- Solubility of oxygen (14.2 °C): 10.249 ppm
- Solubility of oxygen (14.4 °C): 10.204 ppm
- Solubility of oxygen (14.6 °C): 10.160 ppm
- Solubility of oxygen (14.8 °C): 10.115 ppm
- Solubility of oxygen (15.0 °C): 10.072 ppm
- Solubility of oxygen (15.2 °C): 10.028 ppm
- Solubility of oxygen (15.4 °C): 9.985 ppm
- Solubility of oxygen (15.6 °C): 9.942 ppm
- Solubility of oxygen (15.8 °C): 9.900 ppm
- Solubility of oxygen (16.0 °C): 9.858 ppm
- Solubility of oxygen (16.2 °C): 9.816 ppm
- Solubility of oxygen (16.4 °C): 9.774 ppm
- Solubility of oxygen (16.6 °C): 9.733 ppm
- Solubility of oxygen (16.8 °C): 9.692 ppm
- Solubility of oxygen (17.0 °C): 9.651 ppm
- Solubility of oxygen (17.2 °C): 9.611 ppm
- Solubility of oxygen (17.4 °C): 9.571 ppm
- Solubility of oxygen (17.6 °C): 9.531 ppm
- Solubility of oxygen (17.8 °C): 9.492 ppm
- Solubility of oxygen (18.0 °C): 9.453 ppm
- Solubility of oxygen (18.2 °C): 9.414 ppm
- Solubility of oxygen (18.4 °C): 9.375 ppm
- Solubility of oxygen (18.6 °C): 9.337 ppm
- Solubility of oxygen (18.8 °C): 9.299 ppm
- Solubility of oxygen (19.0 °C): 9.261 ppm
- Solubility of oxygen (19.2 °C): 9.224 ppm
- Solubility of oxygen (19.4 °C): 9.187 ppm
- Solubility of oxygen (19.6 °C): 9.150 ppm
- Solubility of oxygen (19.8 °C): 9.113 ppm
- Solubility of oxygen (20.0 °C): 9.077 ppm
- Solubility of oxygen (20.2 °C): 9.040 ppm
- Solubility of oxygen (20.4 °C): 9.004 ppm
- Solubility of oxygen (20.6 °C): 8.969 ppm
- Solubility of oxygen (20.8 °C): 8.933 ppm
- Solubility of oxygen (21.0 °C): 8.989 ppm
- Solubility of oxygen (21.2 °C): 8.863 ppm
- Solubility of oxygen (21.4 °C): 8.829 ppm
- Solubility of oxygen (21.6 °C): 8.794 ppm
- Solubility of oxygen (21.8 °C): 8.760 ppm
- Solubility of oxygen (22.0 °C): 8.726 ppm
- Solubility of oxygen (22.2 °C): 8.693 ppm
- Solubility of oxygen (22.4 °C): 8.659 ppm
- Solubility of oxygen (22.6 °C): 8.626 ppm
- Solubility of oxygen (22.8 °C): 8.583 ppm
- DO concentration of a solution saturated with oxygen (about room temperature (approx.) 21° C): about 8 ppm
